≈ marks a conversion by molar mass, not a printed value. Like-named read-outs stand apart in the source and are kept apart here.
Tests used:
[1] = test system: WNV; assay: Inhibition of CPE assay at time points after initiation (Table 2); assay type: cell-based, West Nile virus; conditions: for EC50: West Nile virus, 144 h, read-out: Inhibition of CPE assay EC50
[2] = test system: WNV; assay: Virus yield reduction (VYR) assay, West Nile virus; assay type: cell-based; conditions: for EC90: West Nile virus, read-out: Virus yield reduction assay EC90
[3] = test system: West Nile Virus ATCC VR-82 (strain B956); assay: CPE inhibition assay against West Nile virus ATCC VR-82 (visual and neutral red reading); assay type: cell-based; conditions: Vero
[4] = test system: West Nile virus New York Isolate; assay: CPE inhibition assay against West Nile virus New York isolate in Vero cells; assay type: cell-based
[5] = Cytotoxicity in toxicity control wells of the WNV tests; assay type: cell-based; conditions: African green monkey, Vero 76 cells (kidney), uninfected toxicity control wells
[6] = test system: Bovine viral diarrhea virus (BVDV), TN131 strain; assay: microbe, parasite or virus in culture; assay type: cell-based; conditions: Bovine viral diarrhea virus isolates and strains
[7] = test system: Yellow fever virus (YFV), 17D strain; assay: microbe, parasite or virus in culture; assay type: cell-based; conditions: Vero
[8] = test system: WNV; conditions: Morrey et al., 2002; cited from earlier work
[9] = in vitro; conditions: African green monkey
[10] = in vitro; conditions: bovine
[11] = in vitro; conditions: African green monkey; remark: listed apart in the source
[12] = test system: Banzi virus (BV), H 336 strain; assay: microbe, parasite or virus in culture; assay type: cell-based; conditions: Vero
[13] = test system: Vero cells
[14] = test system: GAPDH mRNA; assay: Cytotoxicity by GAPDH mRNA in HCV replicon-containing cells; conditions: FIG. 1B
[15] = 144 h, New York Isolate, Visual, Vero cells, 6 days post-virus exposure
[16] = New York Isolate, NR (Neutral red), Vero cells
[17] = ATCC VR-82 columns, NR (Neutral red)
[18] = New York Isolate columns, NR (Neutral red)
[19] = New York Isolate columns, Visual

## O=c1cnn([C@@H]2O[C@H](CO)[C@@H](O)[C@H]2O)c(=O)[nH]1 [6-aza-U, 6-azauridine, reference compound]
[1]; 8 days post-virus initiation, cells treated with any concentration
  CPE observed: 100%
[1]
  EC50: 3.1 µg/mL (≈ 12.6 µM)
[2]; 48 h
  EC90: 1.6 µg/mL (≈ 6.53 µM)
[2]; 144 h
  EC90: 431 µg/mL (≈ 1760 µM)
[2]; day 6, compared to no addition of fresh compound
  Effect of addition of fresh compound every 2 days on VYR: did not improve
[3]
  EC50: 5 µg/mL (≈ 20.4 µM)
[3]; 144 h
  EC50: 22 µg/mL (≈ 89.7 µM)
[4]; [15]
  EC50: 0.9 µg/mL (≈ 3.67 µM)
[4]; [16]
  EC50: 1.6 µg/mL (≈ 6.53 µM)
[5]; [17]
  CC50 at 6 days: > 100 µg/mL
[5]; ATCC VR-82 columns, Visual
  CC50 at 6 days: 85 µg/mL (≈ 347 µM)
[5]; [18]
  CC50 at 6 days: > 100 µg/mL
[5]; [19]
  CC50 at 6 days: 85 µg/mL (≈ 347 µM)

## NC(=O)c1ncn([C@@H]2O[C@H](CO)[C@@H](O)[C@H]2O)n1 [Ribavirin, reference compound]
[6]
  EC50: 5 µg/mL (≈ 20.5 µM)
[7]
  EC50: 32 µg/mL (≈ 131 µM)
[8]
  activity against WNV in tissue culture: poor activity
[9]
  CC50: > 100 µg/mL
[10]
  CC50: > 100 µg/mL
[11]
  CC50: > 100 µg/mL
[12]
  EC50: 60 µg/mL (≈ 246 µM)

## Nc1nc(=O)n2ccn([C@@H]3O[C@H](CO)[C@@H](O)[C@H]3O)c2n1 [ZX-2401, 2-amino-8-(β-D-ribofuranosyl) imidazo [1,2-a]-s-triazine-4-one]
[1]
  EC50: 15 µg/mL (≈ 53 µM)
[6]
  EC50: 0.6 µg/mL (≈ 2.12 µM)
[2]; 48 h
  EC90: 3.3 µg/mL (≈ 11.7 µM)
[2]; 144 h
  EC90: 40 µg/mL (≈ 141 µM)
[7]
  EC50: 10 µg/mL (≈ 35.3 µM)
[13]
  Toxicity by visual inspection of treated uninfected cultures: No toxicity
[14]
  toxicity as measured by GAPDH mRNA levels: no toxicity
[3]
  EC50: 3 µg/mL (≈ 10.6 µM)
[3]; 144 h
  EC50: < 4.6 µg/mL
[4]; [15]
  EC50: 9.5 µg/mL (≈ 33.5 µM)
[4]; MOI 1.6 × 10^−3, New York strain in Vero cells
  EC50: 20 µg/mL (≈ 70.6 µM)
[4]; MOI 1.6 × 10^−4, New York strain in Vero cells
  EC50: 12 µg/mL (≈ 42.4 µM)
[4]; MOI 5 × 10^−4, New York strain in Vero cells
  EC50: 15 µg/mL (≈ 53 µM)
[4]; MOI 5 × 10^−5 (5 CCID50), New York strain in Vero cells
  EC50: 15 µg/mL (≈ 53 µM)
[4]; [16]
  EC50: 8 µg/mL (≈ 28.2 µM)
[9]
  CC50: > 100 µg/mL
[5]; [17]
  CC50 at 6 days: > 100 µg/mL
[5]; ATCC VR-82 columns, Visual
  CC50 at 6 days: > 100 µg/mL
[5]; [18]
  CC50 at 6 days: > 100 µg/mL
[5]; [19]
  CC50 at 6 days: > 100 µg/mL
[10]
  CC50: > 100 µg/mL
[11]
  CC50: > 100 µg/mL
[12]
  EC50: 5 µg/mL (≈ 17.7 µM)

— patent US20060035848A1, “Broad-spectrum inhibitor of viruses in the Flaviviridae family” (ZymeTx, Inc., priority 2004, published 2006)
